Key:
[1] = system: HL-60 cells, a promyelocytic leukemia cell line; test: cytotoxicity against HL-60 cells (trypan blue exclusion, cell counts after 72 h); type: cell-based; details: 100 nM to 0.1 nM, 0.5% DMSO
Experimental: (§1) 18. To verify their potential as prodrugs, two taxol esters, taxol 2′-chloroacetate (2) and taxol 2′-acrylate (3), were tested for cytotoxicity against HL-60 cells, a promyelocytic leukemia cell line, and MOLT-4 cells, a lymphoblastic leukemia cell line.^20 Both derivatives had IC50 values about ten times higher than that of taxol for each cell line.
(§2) 20. Cells were seeded in 96-well plates at densities of 30,000 cells/well and grown in RPMI-1640 medium containing 10% bovine calf serum at 37° C. for 24 h. The medium was then replaced with fresh medium containing the taxol esters (excluding taxol, which had been removed by preparative TLC) dissolved in DMSO at final concentrations ranging from 100 nM to 0.1 nM. The final concentration of DMSO in the cell medium was 0.5%. After 72 h, samples were removed for cell counts. Total cell number and viability were determined by trypan blue exclusion and manual cell counting on a hemacytometer.

[2] = system: MOLT-4 cells, a lymphoblastic leukemia cell line; test: cytotoxicity against MOLT-4 cells (trypan blue exclusion, cell counts after 72 h); type: cell-based; details: 100 nM to 0.1 nM, 0.5% DMSO
Experimental: as §1, §2

[3] = solubility in water; details: for solubility greater than that of taxol: relative to taxol, rounded figures of b160; for increase of water solubility relative to taxol: relative to taxol (<4 μg/ml)

Structure (SMILES) | IC50 relative to that of taxol [1] | IC50 relative to that of taxol [2] | solubility greater than that of taxol [3] | increase of water solubility relative to taxol ([3]; water) | solubility ([3]; water)
CC(=O)OC1C(=O)C2(C)C(O)CC3OCC3(OC(C)=O)C2C(OC(=O)c2ccccc2)C2(O)CC(OC(=O)C(OC(=O)CCl)C(NC(=O)c3ccccc3)c3ccccc3)C(C)=C1C2(C)C (stereo not drawn) [compound 2, taxol 2′-chloroacetate] | about ten | about ten |  |  | 
C=CC(=O)OC(C(=O)OC1CC2(O)C(OC(=O)c3ccccc3)C3C4(OC(C)=O)COC4CC(O)C3(C)C(=O)C(OC(C)=O)C(=C1C)C2(C)C)C(NC(=O)c1ccccc1)c1ccccc1 (stereo not drawn) [compound 3, Taxol 2′-acrylate] | about ten | about ten |  |  | 
CC(=O)O[C@H]1C(=O)[C@@]2(C)C([C@H](OC(=O)c3ccccc3)[C@]3(O)C[C@H](OC(=O)[C@H](OC(=O)CCCCC(=O)OCC4OC(O)C(O)C(O)C4O)[C@@H](NC(=O)c4ccccc4)c4ccccc4)C(C)=C1C3(C)C)[C@]1(OC(C)=O)CO[C@@H]1C[C@@H]2O (stereo partly drawn) [taxol 2′-(adipoyl)glucose, Taxol 2′-(adipoyl) glucose] |  |  | 60 times | 58 fold | 
CC(=O)O[C@H]1C(=O)[C@@]2(C)C([C@H](OC(=O)c3ccccc3)[C@]3(O)C[C@H](OC(=O)[C@H](OC(=O)CCCCC(=O)O)[C@@H](NC(=O)c4ccccc4)c4ccccc4)C(C)=C1C3(C)C)[C@]1(OC(C)=O)CO[C@@H]1C[C@@H]2O (stereo partly drawn) [taxol 2′-adipic acid, Taxol 2′-adipic acid] |  |  | 1,700 times | 1625 fold | 
CC(=O)O[C@H]1C(=O)[C@@]2(C)[C@H]([C@H](OC(=O)c3ccccc3)[C@]3(O)C[C@H](OC(=O)[C@H](O)[C@@H](NC(=O)c4ccccc4)c4ccccc4)C(C)=C1C3(C)C)[C@]1(OC(C)=O)CO[C@@H]1C[C@@H]2O [taxol] |  |  |  |  | < 4 µg/mL

Source: patent US6465625B1, “Taxol derivatives” (Albany Molecular Research, Inc., priority 1995, dated 2002)
